Experimental findings from patent US20240058387A1, “CULTURE MEDIUM COMPOSITION FOR AMPLIFYING AND MAINTAINING SELF-RENEWAL CAPACITY AND DIFFERENTIATION POTENTIAL OF HSCS AND APPLICATION THEREOF” (EDIGENE (GUANGZHOU) INC., priority 2020, published 2024) are described below.

Common to all, as to format: cell-based, human
The test system of assay [1] is umbilical cord blood-derived CD34+ cells. The assay is described as follows: Cell counting: total cell number and absolute number of marker-positive cells after small molecule induction. To be noted: 6 days. How it is done: (§1) According to the solubility and required solvent indicated in the instructions of the small molecule inhibitor (see Table 1 for the Cat. number of the small molecule inhibitor), the preparation of the small molecule inhibitor stock solution was carried out. Next, the hematopoietic stem cell medium was prepared: SFEM II medium (stem cell, Cat. number: 09655)+50 ng/ml growth factor Flt-3L (PeProtech, Cat. number: 300-100UG)+50 ng/ml growth factor SCF (PeProtech, Cat. number): 300-07-100UG)+50 ng/ml growth factor TPO (PeProtech, Cat. number: 300-18-100UG)+10 ng/ml interleukin IL-6 (PeProtech, Cat. number: 200-06-20UG)+1% bispecific antibody (HyClone, Cat. No.: sv30010). According to the set concentration gradient of the small molecule inhibitor, the stock solution and the basal medium were used to prepare the medium containing different concentrations of the small molecule inhibitor.
(§2) First, the prepared medium was added to a 24-well plate (Corning, Cat. number: 3473), 950 μl per well, and placing it in a carbon dioxide incubator (Thermo, model: 3111) to preheat; resuspending the spare umbilical cord Blood-derived HSCs of Example 1 with SFEM 11+50 ng/ml Flt-3L+50 ng/ml SCF+50 ng/ml TPO+10 ng/ml IL-6+1% bispecific antibody, calculating the medium volume to be added according to 50 μl cell suspension per well and 2*10^5/m1 cell density per well. For example, when the final volume of the cell culture solution per well was 1 ml, the total number of cells per well was 2*10^5 cells calculated according to the cell density per well, and the density of the […] of cell suspension supplemented to each well is 4*10^6/ml. The density of the spare HSCs of Example 1 was adjusted to the calculated density of the cell suspension, and adding it; taking out the preheated medium from the incubator, adding 50 μl of the cell suspension to each well, and after mixing, using the microscope (OLYMPUS, model: CKX53) to observe the cells state, and then putting it into an incubator for culturing.
On the umbilical cord blood-derived CD34+ cells sorted in Example 1, the optimal concentration of the screened-out inhibitor AG1296 was screened in the same way as in Example 2. After 6 days of induction with different concentrations of the small molecule inhibitor AG1296, the expression of LT-HSCs cell surface markers (CD34+CD45+CD90+CD45RA−CD38−) was detected by flow cytometry using the same method as in Example 3. 20 μL of cell suspension was taken to count in a cell counter (Nexcelom, model: Cellometer K2) on the 6th day of culture, calculating the absolute number of the final CD34+ cells and LT-HSCs on the 6th day (absolute number of cells=total number of cells*sternness ratio). The results were shown in FIGS. 3A-3B and FIGS. 4A-4B, respectively.

For assay [2] the test system is unchanged. The assay is described as follows: Flow cytometry detection of HSC stemness markers (LT-HSCs CD34+CD45+CD90+CD45RA-CD38-) after small molecule induction. The procedure:
as §1, §2
(§3) 20 μL of cells cultured for 6-8 days (D6-D8) in the above Example 2 was sampled for counting, taking out a suspension of 2*10^5 cells into a 1.5 ml centrifuge tube according to the counting result; centrifuging at 400 g for 5 min, discarding the supernatant. 100 μL of PBS (phosphate-buffered saline solution, HyClone, Cat. number: SH30256.01) containing 1% HSA (human serum albumin, Guangdong Shuanglin, Cat. number: S10970069) was taken, resuspending the cells, and vortexing to mix well for later use. Then, the cell sample in the control was collected. The number of cells and the collection method were the same as those of the sample cells to be tested. The controls were setting as the NC group and the ISO group respectively, selecting the cells from any sample or mixed cells of the samples to be tested in this batch of experiments, depending on the number of cells.
(§4) According to Table 3 above, the antibodies were added to the cell suspensions of the above-mentioned cell samples to be tested and control cell samples according to groups; vortexing to mix and incubating at room temperature for 15 min in the dark. After 15-min incubation, 1 ml of PBS containing 1% HSA was added to each test sample, mixing well, centrifuging at 400 g for 5 min at room temperature. After centrifugation, the supernatant was discarded, and the cells were resuspended in 100 μL of PBS containing 1% HSA for each test sample. Samples were stored at room temperature away from light before testing. […]

Assay [3] deals with mobilized peripheral blood-derived CD34+ cells. The assay is described as follows: Flow cytometry detection of HSC stemness markers, comparison with UM171 and SR1. To be noted: FIG. 5A; 1 μM; 8 days. How it is done:
as §1, §2, §3, §4
On the technique in general: Flow cytometry measures light scatter and fluorescence of single cells or particles in a stream.

The mark [4] stands for this setting: FIG. 3B, 1 μM, 5 μM and 10 μM, vs Mock.

For the molecule `COc1cc2ncc(-c3ccccc3)nc2cc1OC` [AG1296], in assay [1] (FIG. 3B, 1 μM vs 5 μM and 10 μM), the total cell number entry was “higher cell numbers than that at concentrations of 5 μM and 10 μM”. Further, in assay [1] (FIG. 3B, 1 μM, 5 μM and 10 μM), the “absolute number of proliferating LT-HSCs” value is reported as “better effect” and the “effect on cell proliferation” value is given as “slightly inhibited cell proliferation”. For the same molecule, in assay [1] (setting [4]), the “absolute number of CD34+CD90+CD45RA- cells” value was “significantly better than the Mock group” and the “absolute numbers of CD34+ cells” value is “lower than that in the mock group”. Further, in assay [1] (FIG. 4B, 1 μM), the “absolute number of proliferating LT-HSCs relative to other groups” value is 1-2 times and the “effect on cell proliferation” value was “slightly inhibited cell proliferation”. In assay [1] (FIG. 4B, 1 μM, vs Mock, 100 nM, 500 nM groups), the “absolute number of CD34+ cells” value is listed as “not significantly better than other groups”. Besides, the “absolute number of CD34+CD90+, and CD34+CD90+CD45RA- cells” value in assay [1] (FIG. 4B, 1 μM, vs other groups) was “significantly better than other groups”. Also, in assay [2] (FIG. 2, 6-8 days induction, 3 concentrations per inhibitor), the “expansion fold of the ratio of LT-HSCs (CD34+CD45+CD90+CD45RA-CD38-), test group/control group (Mock)” value is given as “more than 3 times”. Also, the “maintaining the CD3+, CD34+CD90+, CD34+CD90+CD45RA- cell ratios (proportion in total cells)” value in assay [2] (FIG. 3A, 1 μM, 5 μM and 10 μM, 6 days, vs Mock) was “superior to the Mock group”. Further, in assay [2] (FIG. 4A, 1 μM, 6 days), the “proportion of LT-HSC relative to AG1296 (500 nM)” value is given as “about 2 times”; the “proportion of LT-HSC relative to Mock group and AG1296 (100 nM) group” value was “about 3 times”. Moreover, in assay [2] (FIG. 4A, 1 μM, 6 days, vs Mock, 100 nM and 500 nM), the “maintaining the ratio of CD34+, CD34+CD90+, and CD34+CD90+CD45RA- cells” value is “better than Mock group and at the concentrations of 100 nM and 500 nM”. In assay [3], the “maintaining the proportion of CD34+, CD34+CD90+, and CD34+CD90+CD45RA- cells, vs Mock, UM171 and lower AG1296 concentrations” value is “significantly more effective than Mock group, UM171 group, AG1296 (500 nM) group and AG1296 (700 nM) group”; the “maintaining the proportion of CD34+, CD34+CD90+, and CD34+CD90+CD45RA- cells, vs SR1 group” value is “not as good as the SR1 group”; the “proportion of LT-HSCs relative to AG1296 (500 nM) group and AG1296 (700 nM) group” value was “about 1 time”; the “proportion of LT-HSCs relative to Mock group and UM171 group” value is listed as “about 2 times”. The “proportion of LT-HSCs, vs SR1 group” value in assay [3] is reported as “not as good as SR1 group”.
